Drawing on patent US20230310428A1, “EGFR INHIBITOR AND PREPARATION METHOD AND USE THEREOF” (HONGYUN BIOTECH CO., LTD., priority 2020, published 2023), this text covers IC50 for 22 compounds.

Holding throughout (assay): Growth inhibitory activity of compounds on BaF3 cell lines stably transfected with kinase (MTS, 48 h)
Holding throughout (format): cell-based

The target in test [1] is T1, various mutants of kinase EGFR (BaF3 cell lines stably transfected with kinase) (Homo sapiens, UniProt P00533).
T1 construct: other: BaF3 cells stably transfected with EGFR Δ19Del; MTS, 48 h; other: BaF3 cell line stably transfected with EGFR Δ19Del
To be noted: BaF3 cell line stably transfected with EGFR Δ19Del, read-out: Δ19Del growth inhibitory activity IC50. The method, boiled down: (§1)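 BaF3 cells stably transfected with EGFR mutants were exposed for 48 h at 37°C to 8 compound concentrations (top 10 µM, 1/3 dilutions, 0.1% DMSO). Growth was read by MTS at 490 nm after 1-4 h, in duplicate; IC50 was derived from inhibition rates versus DMSO control.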

Test [2] addresses T2, various mutants of kinase EGFR (BaF3 cell lines stably transfected with kinase) (Homo sapiens, UniProt P00533, C797S/L858R/T790M).
T2 construct: expressed in transfected cells; host or cells: BaF3
The conditions noted are these: BaF3 cell line stably transfected with EGFR L858R/T790M/C797S, read-out: L858R/T790M/ C797S growth inhibitory activity IC50. The method, boiled down:
as §1

For test [3], the target named is T3, various mutants of kinase EGFR (BaF3 cell lines stably transfected with kinase) (Homo sapiens, UniProt P00533, L858R).
T3 construct: expressed in transfected cells; host or cells: BaF3
The conditions noted are these: BaF3 cell line stably transfected with EGFR L858R, read-out: L858R growth inhibitory activity IC50. The method, boiled down: as §1

Test [4] concerns the target T4, various mutants of kinase EGFR (BaF3 cell lines stably transfected with kinase) (Homo sapiens, UniProt P00533, L858R/T790M).
T4 construct: expressed in transfected cells; host or cells: BaF3
The conditions noted are these: BaF3 cell line stably transfected with EGFR L858R/T790M, read-out: L858R/ T790M growth inhibitory activity IC50. The method, boiled down:
as §1

In test [5] the target is T5, various mutants of kinase EGFR (BaF3 cell lines stably transfected with kinase) (Homo sapiens, UniProt P00533, T790M/C797S, form not given).
T5 construct: other: BaF3 cells stably transfected with EGFR Δ19Del/T790M/C797S; MTS, 48; other: BaF3 cell line stably transfected with EGFR Δ19Del/T790M/C7
T5 sequence (P00533 with tags, fused parts or gaps DEL746-750/T790M/C797S, form open): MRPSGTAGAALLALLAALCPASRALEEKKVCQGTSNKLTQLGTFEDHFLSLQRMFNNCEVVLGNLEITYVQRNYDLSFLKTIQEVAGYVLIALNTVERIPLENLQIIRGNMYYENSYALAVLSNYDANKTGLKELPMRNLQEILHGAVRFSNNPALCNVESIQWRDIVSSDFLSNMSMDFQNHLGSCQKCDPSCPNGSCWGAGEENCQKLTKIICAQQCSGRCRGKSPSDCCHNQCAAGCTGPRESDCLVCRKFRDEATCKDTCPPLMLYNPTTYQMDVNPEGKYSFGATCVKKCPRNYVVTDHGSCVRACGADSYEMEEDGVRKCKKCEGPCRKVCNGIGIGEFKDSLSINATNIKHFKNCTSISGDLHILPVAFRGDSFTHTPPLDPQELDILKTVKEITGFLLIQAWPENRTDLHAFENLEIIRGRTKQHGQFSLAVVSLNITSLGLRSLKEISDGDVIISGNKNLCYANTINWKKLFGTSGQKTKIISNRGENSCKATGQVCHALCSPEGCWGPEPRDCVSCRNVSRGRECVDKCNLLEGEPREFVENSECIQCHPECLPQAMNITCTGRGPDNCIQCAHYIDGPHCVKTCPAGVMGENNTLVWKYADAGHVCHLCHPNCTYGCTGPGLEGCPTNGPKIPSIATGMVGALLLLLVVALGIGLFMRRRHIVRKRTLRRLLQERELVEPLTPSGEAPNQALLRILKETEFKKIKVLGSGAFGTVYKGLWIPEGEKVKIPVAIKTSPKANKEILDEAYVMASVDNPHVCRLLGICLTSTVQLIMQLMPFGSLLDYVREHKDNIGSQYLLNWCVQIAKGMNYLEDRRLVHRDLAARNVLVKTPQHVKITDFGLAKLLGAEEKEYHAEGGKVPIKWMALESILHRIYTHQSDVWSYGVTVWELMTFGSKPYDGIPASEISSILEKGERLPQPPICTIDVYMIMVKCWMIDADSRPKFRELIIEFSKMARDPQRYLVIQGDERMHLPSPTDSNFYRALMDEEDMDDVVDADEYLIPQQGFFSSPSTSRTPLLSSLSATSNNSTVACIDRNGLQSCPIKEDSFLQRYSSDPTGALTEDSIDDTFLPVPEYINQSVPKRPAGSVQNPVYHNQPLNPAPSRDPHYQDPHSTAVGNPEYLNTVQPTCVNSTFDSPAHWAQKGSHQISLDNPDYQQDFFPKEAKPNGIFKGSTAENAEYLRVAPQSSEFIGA
To be noted: BaF3 cell line stably transfected with EGFR Δ19Del/T790M/C797S, read-out: Δ19Del/T790M/ C797S growth inhibitory activity IC50. The method, boiled down: as §1

In test [6] the target is T6, various mutants of kinase EGFR (BaF3 cell lines stably transfected with kinase) (Homo sapiens, UniProt P00533, T790M, form not given).
T6 construct: other: BaF3 cells stably transfected with EGFR Δ19Del/T790M; MTS, 48 h; other: BaF3 cell line stably transfected with EGFR Δ19Del/T790M; MTS, 48
T6 sequence (P00533 with tags, fused parts or gaps DEL746-750/T790M, form open): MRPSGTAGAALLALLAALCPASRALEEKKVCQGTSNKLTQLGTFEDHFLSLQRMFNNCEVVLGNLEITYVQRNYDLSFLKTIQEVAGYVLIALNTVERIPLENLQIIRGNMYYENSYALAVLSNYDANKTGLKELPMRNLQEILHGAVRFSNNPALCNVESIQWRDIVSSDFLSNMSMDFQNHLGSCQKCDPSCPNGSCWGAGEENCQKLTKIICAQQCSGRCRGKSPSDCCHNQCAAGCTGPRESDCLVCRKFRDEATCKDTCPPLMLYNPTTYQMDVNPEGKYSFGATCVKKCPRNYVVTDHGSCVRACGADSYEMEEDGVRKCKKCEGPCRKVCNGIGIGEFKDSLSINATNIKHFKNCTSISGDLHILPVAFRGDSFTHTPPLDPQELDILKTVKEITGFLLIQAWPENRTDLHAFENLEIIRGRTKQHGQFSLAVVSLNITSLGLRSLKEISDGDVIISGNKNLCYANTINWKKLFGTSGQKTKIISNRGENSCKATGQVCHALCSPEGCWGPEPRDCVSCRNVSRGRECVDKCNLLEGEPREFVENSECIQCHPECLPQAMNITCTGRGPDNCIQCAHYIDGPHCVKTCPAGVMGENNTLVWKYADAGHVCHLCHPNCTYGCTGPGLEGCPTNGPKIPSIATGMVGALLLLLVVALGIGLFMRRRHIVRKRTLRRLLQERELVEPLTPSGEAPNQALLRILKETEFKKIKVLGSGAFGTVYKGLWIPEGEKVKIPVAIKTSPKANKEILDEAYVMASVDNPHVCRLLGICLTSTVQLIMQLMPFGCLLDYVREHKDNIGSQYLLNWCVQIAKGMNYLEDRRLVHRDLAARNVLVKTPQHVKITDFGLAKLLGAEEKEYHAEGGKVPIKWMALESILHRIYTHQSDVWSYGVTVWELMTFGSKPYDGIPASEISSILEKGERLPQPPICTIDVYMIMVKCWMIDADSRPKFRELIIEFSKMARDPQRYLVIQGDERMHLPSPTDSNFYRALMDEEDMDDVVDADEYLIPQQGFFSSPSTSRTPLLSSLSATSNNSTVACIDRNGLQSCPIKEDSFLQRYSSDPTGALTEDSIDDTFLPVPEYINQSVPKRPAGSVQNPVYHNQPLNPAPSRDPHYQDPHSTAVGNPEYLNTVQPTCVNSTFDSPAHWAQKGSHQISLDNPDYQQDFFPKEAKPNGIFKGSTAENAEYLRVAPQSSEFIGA
The conditions noted are these: BaF3 cell line stably transfected with EGFR Δ19Del/T790M, read-out: Δ19Del/ T790M growth inhibitory activity IC50. The method, boiled down: as §1

T2 sequence (P00533 25-1210 T790M/C797S/L858R): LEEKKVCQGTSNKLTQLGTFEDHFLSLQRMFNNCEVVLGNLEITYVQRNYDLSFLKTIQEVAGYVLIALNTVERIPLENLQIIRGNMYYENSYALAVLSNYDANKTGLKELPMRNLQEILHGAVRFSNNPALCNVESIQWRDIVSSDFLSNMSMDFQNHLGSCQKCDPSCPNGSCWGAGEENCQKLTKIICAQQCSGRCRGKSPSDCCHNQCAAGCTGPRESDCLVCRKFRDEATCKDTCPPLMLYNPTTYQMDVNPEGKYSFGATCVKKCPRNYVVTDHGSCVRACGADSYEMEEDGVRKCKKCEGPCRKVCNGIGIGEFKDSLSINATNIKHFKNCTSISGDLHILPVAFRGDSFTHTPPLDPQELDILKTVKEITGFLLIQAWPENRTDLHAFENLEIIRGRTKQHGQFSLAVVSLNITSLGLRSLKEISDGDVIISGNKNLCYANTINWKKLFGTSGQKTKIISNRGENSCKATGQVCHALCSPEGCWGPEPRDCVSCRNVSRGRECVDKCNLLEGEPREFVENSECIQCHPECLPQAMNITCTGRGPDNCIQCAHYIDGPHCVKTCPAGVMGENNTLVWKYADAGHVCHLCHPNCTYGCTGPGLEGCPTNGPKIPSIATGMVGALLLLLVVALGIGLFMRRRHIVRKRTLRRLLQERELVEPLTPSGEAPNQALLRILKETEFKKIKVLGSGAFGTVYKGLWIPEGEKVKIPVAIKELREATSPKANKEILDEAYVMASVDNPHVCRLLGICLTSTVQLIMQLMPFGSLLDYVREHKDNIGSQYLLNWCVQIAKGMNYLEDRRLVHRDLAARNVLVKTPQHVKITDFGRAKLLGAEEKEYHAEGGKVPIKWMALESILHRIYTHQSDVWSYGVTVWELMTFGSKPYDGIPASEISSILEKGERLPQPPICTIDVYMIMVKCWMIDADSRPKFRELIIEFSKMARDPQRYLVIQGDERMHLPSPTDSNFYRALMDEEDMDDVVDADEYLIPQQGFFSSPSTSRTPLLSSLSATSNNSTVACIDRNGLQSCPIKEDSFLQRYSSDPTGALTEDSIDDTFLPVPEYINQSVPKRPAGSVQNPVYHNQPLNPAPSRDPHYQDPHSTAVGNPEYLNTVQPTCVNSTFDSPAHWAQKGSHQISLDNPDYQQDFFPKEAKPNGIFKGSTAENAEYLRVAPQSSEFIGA
T4 sequence (P00533 25-1210 T790M/L858R): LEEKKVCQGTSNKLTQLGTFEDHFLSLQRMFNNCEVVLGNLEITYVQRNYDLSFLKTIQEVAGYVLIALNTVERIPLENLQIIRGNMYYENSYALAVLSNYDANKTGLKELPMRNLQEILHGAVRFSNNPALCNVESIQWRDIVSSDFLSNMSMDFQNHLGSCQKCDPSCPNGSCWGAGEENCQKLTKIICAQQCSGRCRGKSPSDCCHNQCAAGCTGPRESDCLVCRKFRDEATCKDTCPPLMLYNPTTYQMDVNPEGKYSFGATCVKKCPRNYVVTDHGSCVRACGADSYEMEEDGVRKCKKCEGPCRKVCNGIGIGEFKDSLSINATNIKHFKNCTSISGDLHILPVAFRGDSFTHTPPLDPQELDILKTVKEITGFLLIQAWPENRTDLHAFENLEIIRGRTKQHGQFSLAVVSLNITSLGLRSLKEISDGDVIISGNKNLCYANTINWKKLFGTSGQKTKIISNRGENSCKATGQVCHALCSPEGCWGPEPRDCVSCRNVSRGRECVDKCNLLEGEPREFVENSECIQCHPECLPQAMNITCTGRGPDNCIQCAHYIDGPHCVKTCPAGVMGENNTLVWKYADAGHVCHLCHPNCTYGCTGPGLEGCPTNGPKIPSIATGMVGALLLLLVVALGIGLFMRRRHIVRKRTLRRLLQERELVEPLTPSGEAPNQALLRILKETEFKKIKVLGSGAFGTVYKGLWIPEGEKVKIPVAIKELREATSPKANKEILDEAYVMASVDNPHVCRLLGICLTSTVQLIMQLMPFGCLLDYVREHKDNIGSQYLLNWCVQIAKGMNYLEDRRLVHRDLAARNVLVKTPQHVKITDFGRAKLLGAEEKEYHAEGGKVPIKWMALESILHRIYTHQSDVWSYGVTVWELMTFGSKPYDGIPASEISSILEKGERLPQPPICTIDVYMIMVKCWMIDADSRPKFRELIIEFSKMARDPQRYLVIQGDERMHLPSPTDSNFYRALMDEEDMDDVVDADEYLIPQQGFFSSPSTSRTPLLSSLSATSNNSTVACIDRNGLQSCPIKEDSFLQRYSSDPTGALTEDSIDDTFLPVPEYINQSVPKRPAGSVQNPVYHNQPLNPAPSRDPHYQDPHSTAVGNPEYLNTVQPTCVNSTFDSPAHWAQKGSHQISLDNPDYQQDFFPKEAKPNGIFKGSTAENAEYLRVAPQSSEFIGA

With `COc1cc(N2CCC(N3CCN(C)CC3)CC2)ccc1Nc1ncc(C(C)C)c(Nc2ccc3nccnc3c2N(C)S(C)(=O)=O)n1` [Compound I-325], the IC50 in test [1] is 50 to 500 nM; in test [2], 50 to 500 nM; in test [3], 50 to 500 nM; in test [4] it was 50 to 500 nM; in test [5], ≤ 50 nM; in test [6], 50 to 500 nM.
On to `COc1cc(N2CCC(N3CCN(C)CC3)CC2)c(C)cc1Nc1ncc(C(C)C)c(Nc2ccc3nccnc3c2N(C)S(C)(=O)=O)n1` [Compound I-326], for which the IC50 in test [1], in test [2], in test [3], in test [4], in test [5] and in test [6] was 50 to 500 nM in each case.
As for `CCc1cc(Nc2ncc(C(C)C)c(Nc3ccc4nccnc4c3N(C)S(C)(=O)=O)n2)c(OC)cc1N1CCC(N2CCN(C)CC2)CC1` [Compound I-327], the IC50 in test [1] was ≤ 50 nM; in test [2], 50 to 500 nM; in test [3], ≤ 50 nM; in test [4], ≤ 50 nM; in test [5], 50 to 500 nM; in test [6], ≤ 50 nM.
For the compound `CCc1cc(Nc2ncc(C(C)C)c(Nc3ccc4nccnc4c3N(C)S(C)(=O)=O)n2)c(OC)nc1N1CCC(N2CCN(C)CC2)CC1` [Compound I-328], the IC50 in test [1] was 50 to 500 nM; in test [2], 50 to 500 nM; in test [3], 50 to 500 nM; in test [4] it was ≤ 50 nM; in test [5], 50 to 500 nM; in test [6], ≤ 50 nM.
As to `CCc1cc(Nc2ncc(C(C)C)c(Nc3ccc4nccnc4c3N(C)S(C)(=O)=O)n2)c(OC)cc1N1CCN(C)CC1` [Compound I-329], the IC50 in test [1] was 50 to 500 nM; in test [2] it was 50 to 500 nM; in test [3], 50 to 500 nM; in test [4], ≤ 50 nM; in test [5], 50 to 500 nM; in test [6], ≤ 50 nM.
For the compound `CCc1cc(Nc2ncc(C(C)C)c(Nc3ccc4nccnc4c3N(C)S(C)(=O)=O)n2)c(OC)cc1N1CCC(N(C)C)CC1` [Compound I-330], the IC50 in test [1], in test [2], in test [3], in test [4], in test [5] and in test [6] was ≤ 50 nM in each case.
Regarding `CCc1cc(Nc2ncc(C(C)C)c(Nc3ccc4nccnc4c3N(C)S(C)(=O)=O)n2)c(OC)cc1N1CCC(N(C)C)C1` (stereo not drawn) [Compound I-331], the IC50 in test [1] is 50 to 500 nM; in test [2] it was ≤ 50 nM; in test [3], 50 to 500 nM; in test [4] it was 50 to 500 nM; in test [5], ≤ 50 nM; in test [6], ≤ 50 nM.
Take `COc1cc(N2CCC(N3CCN(C)CC3)CC2)c(C)cc1Nc1ncc(OC)c(Nc2ccc3nccnc3c2N(C)S(C)(=O)=O)n1` [Compound I-332]: the IC50 in test [1], in test [2], in test [3], in test [4], in test [5] and in test [6] was ≤ 50 nM in each case.
With `CCc1cc(Nc2ncc(OC)c(Nc3ccc4nccnc4c3N(C)S(C)(=O)=O)n2)c(OC)cc1N1CCC(N2CCN(C)CC2)CC1` [Compound I-333], the IC50 in test [1], in test [2], in test [3], in test [4], in test [5] and in test [6] was ≤ 50 nM throughout.
`CCc1cc(Nc2ncc(OC)c(Nc3ccc4nccnc4c3N(C)S(C)(=O)=O)n2)c(OC)nc1N1CCC(N2CCN(C)CC2)CC1` [Compound I-334]: the IC50 in test [1], in test [2], in test [3], in test [4], in test [5] and in test [6] was ≤ 50 nM in each case.
Consider `CCc1cc(Nc2ncc(OC)c(Nc3ccc4nccnc4c3N(C)S(C)(=O)=O)n2)c(OC)cc1N1CCC(N(C)C)C1` (stereo not drawn) [Compound I-335], for which the IC50 in test [1], in test [2], in test [3], in test [4], in test [5] and in test [6] was ≤ 50 nM each time.
Turning to `CCOc1cnc(Nc2cc(C)c(N3CCC(N4CCN(C)CC4)CC3)cc2OC)nc1Nc1ccc2nccnc2c1N(C)S(C)(=O)=O` [Compound I-336], the IC50 in test [1] fell in the range of 50 to 500 nM; in test [2], 50 to 500 nM; in test [3], 50 to 500 nM; in test [4] it was 50 to 500 nM; in test [5] it was 500 to 2500 nM; in test [6], 50 to 500 nM.
`CCOc1cnc(Nc2cc(CC)c(N3CCC(N4CCN(C)CC4)CC3)cc2OC)nc1Nc1ccc2nccnc2c1N(C)S(C)(=O)=O` [Compound I-337]: the IC50 was ≤ 50 nM in test [1]; 50 to 500 nM in test [2]; 50 to 500 nM in test [3]; 50 to 500 nM in test [4]; 50 to 500 nM in test [5]; ≤ 50 nM in test [6].
Turning to `CCOc1cnc(Nc2cc(CC)c(N3CCC(N4CCN(C)CC4)CC3)nc2OC)nc1Nc1ccc2nccnc2c1N(C)S(C)(=O)=O` [Compound I-338], the IC50 in test [1] is 50 to 500 nM; in test [2] it was 50 to 500 nM; in test [3], 50 to 500 nM; in test [4], 50 to 500 nM; in test [5] it was 500 to 2500 nM; in test [6], 50 to 500 nM.
`COc1cc(N2CCC(N3CCN(C)CC3)CC2)c(C)cc1Nc1nccc(Nc2ccc3nccnc3c2N(C)S(C)(=O)=O)n1` [Compound I-340]: the IC50 in test [1] was ≤ 50 nM; in test [2], 50 to 500 nM; in test [3], ≤ 50 nM; in test [4], ≤ 50 nM; in test [5], 50 to 500 nM; in test [6] it was ≤ 50 nM.
For the compound `CCc1cc(Nc2nccc(Nc3ccc4nccnc4c3N(C)S(C)(=O)=O)n2)c(OC)cc1N1CCC(N2CCN(C)CC2)CC1` [Compound I-341], the IC50 in test [1] is ≤ 50 nM; in test [2], ≤ 50 nM; in test [3], ≤ 50 nM; in test [4], ≤ 50 nM; in test [5], 50 to 500 nM; in test [6], ≤ 50 nM.
Turning to `COc1cc(N2CCC(N3CCN(C)CC3)CC2)c(C(C)C)cc1Nc1nccc(Nc2ccc3nccnc3c2N(C)S(C)(=O)=O)n1` [Compound I-342], the IC50 in test [1] was in the range of 50 to 500 nM; in test [2], 500 to 2500 nM; in test [3] it was 50 to 500 nM; in test [4], 50 to 500 nM; in test [5] it was 500 to 2500 nM; in test [6] it was 50 to 500 nM.
For `COc1cc(N2CCC(N3CCN(C)CC3)CC2)c(C2CC2)cc1Nc1nccc(Nc2ccc3nccnc3c2N(C)S(C)(=O)=O)n1` [Compound I-343], the IC50 in test [1], in test [2], in test [3], in test [4], in test [5] and in test [6] was 50 to 500 nM throughout.
With `CCc1cc(Nc2nccc(Nc3ccc4nccnc4c3N(C)S(C)(=O)=O)n2)ccc1N1CCC(N2CCN(C)CC2)CC1` [Compound I-344], the IC50 in test [1] was ≤ 50 nM; in test [2], ≤ 50 nM; in test [3], ≤ 50 nM; in test [4], ≤ 50 nM; in test [5] it was 50 to 500 nM; in test [6], 50 to 500 nM.
Turning to `COc1cc(N2CCC(N3CCN(C)CC3)CC2)c(C(C)C)cc1Nc1ncc(C#N)c(Nc2ccc3nccnc3c2N(C)S(C)(=O)=O)n1` [Compound I-345], the IC50 in test [1], in test [2], in test [3], in test [4], in test [5] and in test [6] was 50 to 500 nM throughout.
Turning to `CCc1cc(Nc2ncc(C#N)c(Nc3ccc4nccnc4c3N(C)S(C)(=O)=O)n2)ccc1N1CCC(N2CCN(C)CC2)CC1` [Compound I-346], the IC50 was ≤ 50 nM in test [1]; ≤ 50 nM in test [2]; ≤ 50 nM in test [3]; ≤ 50 nM in test [4]; 50 to 500 nM in test [5]; ≤ 50 nM in test [6].
In the case of `CCc1cc(Nc2ncc(C3CC3)c(Nc3ccc4nccnc4c3N(C)S(C)(=O)=O)n2)c(OC)cc1C(=O)N1CCC(N2CCN(C)CC2)CC1` [Compound I-347], the IC50 lay within 500 to 2500 nM in test [1]; 50 to 500 nM in test [2]; 50 to 500 nM in test [3]; 50 to 500 nM in test [4]; 50 to 500 nM in test [5]; 500 to 2500 nM in test [6].
